Source: patent US20230218629A1, “THERAPEUTIC COMPOSITIONS AND METHODS FOR PREVENTION AND TREATMENT OF DIASTOLIC DYSFUNCTION” (AMBETEX PTY LTD, priority 2019, published 2023)

Experiments:
Type in all cases: in vivo
Male C57BL6 mice [1] = experiment: Aβ42 administration study: GTT with glucose tracers, cardiac metabolism
Protocol: At 12 weeks of age, mice were grouped according to body mass and composition, determined by EchoMRI. […] An i.p. glucose tolerance test (GTT) was performed on the final treatment day following an overnight fast. Mice were administered 2 g/kg lean mass of glucose including radioactive glucose tracers, prepared as follows. 100 μl of 1 μCi/μl glucose analogue, [^3H]-2-deoxyglucose (2-DOG), and 500 μl of 200 μCi/mL U-^14C glucose were evaporated to dryness before redissolving the radioactive tracers in 1 mL of 50% glucose. This produced a 50% glucose solution containing 100 μCi/mL [^3H]-2-DOG and 100 μCi/mL U-^14C glucose. The tail tip of each mouse was cut off and the blood glucose concentration of a blood sample was measured using an AccuCheck II glucometer (Roche). The GTT was initiated via intraperitoneal injection of the radiolabelled glucose solution (2 g/kg body weight, 10 uCi/animal) into the overnight-fasted mice. Further blood samples were taken at 15, 30, 45, 60 and 90 minutes after the injection for the measurement of blood glucose. Blood samples (30 μl) were also taken from the tail tip at each time point and diluted in 100 μl of saline. These samples were then centrifuged and the supernatant collected. 50 μl of the supernatant was diluted in 500 μl of distilled water and then suspended in 4 mL of Ultima Gold XR scintillation fluid (Packard Bioscience). Blood radioactivity was determined at each time point by performing liquid scintillation counting on each solution using the Beckman scintillation counter (LS6000 SC). At the conclusion of the GTT, mice were killed via cervical dislocation. Blood was obtained immediately following by cardiac puncture and the heart, and other tissues were immediately removed. Hearts were washed in ice cold PBS and weighed prior to being snap frozen in liquid nitrogen. The heart (30 mg), epididymal fat pad (30 mg and quadriceps skeletal muscle (30 mg) were homogenised in 1.5 ml of distilled water. The homogenate was centrifuged at 3000 rpm for 10 min at 4° C. 400 μl of the supernatant was diluted into 1.6 mL of distilled water and then suspended in 14 mL of Ultima Gold XR scintillation fluid (Packard Bioscience). The radioactivity of each sample (from both [3H]-2-DOG6P and [^3H]-2-DOG) was determined by liquid scintillation counting using the Beckman scintillation counter (LS6000 SC). The ^3H radioactivity was used to measure glucose uptake into each tissue.
To determine the incorporation of U-^14C glucose into triglyceride and the total triglyceride content in the heart, an extraction of triglyceride was carried out using a chloroform/methanol mixture. Samples of heart (30 mg) were hand-homogenised in 2 mL of chloroform/methanol (2:1) and the homogeniser rinsed in a further 2 mL of chloroform/methanol (2:1), and the washings being added to the original extract in 10 mL tubes. The tubes were tightly capped and mixed on a rotator overnight to maximise extraction of the triglycerides. 2 ml of 0.6% saline was then added, to facilitate the separation of the organic and aqueous phases, after which the tubes were mixed thoroughly and then centrifuged at 2000 rpm for 10 minutes. […] The amount of U-^14C glucose clearance into the lipid fraction was measured by suspending 100 μl of the triglyceride solution in 5 mL of Ultima Gold XR scintillation fluid (Packard Bioscience), followed by scintillation counting using the Beckman scintillation counter (LS6000 SC).

Male C57BL6 mice [2] = experiment: Aβ42 administration study: cardiac function by echocardiography
Protocol: (§1) After 4 weeks of peptide administration, cardiac function was assessed by echocardiography as follows. Mice were anaesthetised with inhalation of 1.5% isoflurane anaesthesia and echocardiography was performed using the Phillips HD15 diagnostic ultrasound system with a 15 MHz linear-array transducer by an experienced veterinarian. The velocity of blood flow through the mitral valve was analysed using Doppler mode imaging. […] Doppler imaging was also utilised to measure the velocity of blood flow through the aortic valve. The measurements were then used to calculate the ejection time, peak aortic flow and heart rate. M-mode imaging of the left ventricle was used to measure the thickness of the inter-ventricular septum (IVS), left ventricular internal diameter (LVID) and left ventricular posterior wall (LVPW) in both diastole (d) and end-systole (s) as well as systolic measures such as ejection fraction and fractional shortening. An estimation of LV mass was calculated from the m-mode imaging by using the formula (1.05[LVIDd+LVPWd+IVSd]^3−[LVIDd]^3) by Troy et al. (1972). Mice were humanely killed by cervical dislocation 1 week later. Blood was obtained immediately following by cardiac puncture and the heart, and other tissues were immediately removed. Hearts were washed in ice cold PBS and weighed prior to being snap frozen in liquid nitrogen.

obese mice (HFD) = experiment: Verubecestat-High fat diet (HFD) treatment study
Protocol: Verubecestat-High fat diet (HFD) treatment study: At 12 weeks of age, mice (n=30) were placed on a HFD with 43% of calories from fat (23.5% by weight; SF04-001 High Fat Rodent Diet Based on D12451, Specialty Feeds, Glen Forrest, Wash.). After 13 weeks of the diet period, echocardiography was performed on all mice to obtain pre-drug treatment measures of cardiac function. Mice were allocated to treatment groups so that measures of cardiac function and morphology were matched as best as possible. Verubecestat (MedChemExpress) was resuspended in 100% DMSO before being diluted in a hydroxypropyl cellulose solution to give a final solution containing 6.25 mg/mL Verubecestat in 10% hydroxypropyl cellulose and 5% DMSO. A vehicle solution containing 10% hydroxypropyl cellulose and 5% DMSO was also made. Aliquots of both drug and vehicle were stored at −80° C. until required. The HFD/Verubecestat group was administered 25 mg/kg of Verubecestat per day by oral gavage, while the HFD/control group received an equivalent volume of vehicle. Echocardiography was then performed following 4 weeks of the treatment period to obtain post-drug treatment measures of cardiac function. Following 5 weeks of the drug administration, mice were humanely killed via cervical dislocation and blood was immediately obtained via cardiac puncture and stored in a heparinised tube. The heart, epididymal fat pad, mesenteric fat pad, liver, quadricep, hind limb and brain were then immediately dissected. The heart was blotted prior to being weighed and all tissues were snap frozen in liquid nitrogen and stored at −80° C. Plasma Aβ species were measured using high sensitivity ELISA kits (Wako Diagnostics) and plasma that was diluted 1:10 with assay buffer.

Male C57BL6 mice [3] = experiment: Aβ40 administration study
Protocol: as §1, with “Aβ40 administration study: Lyophilised recombinant Aβ40 (Millipore) and scrambled control peptide (ScrAβ40; Millipore) were resuspended in 1% NH4OH and aliquoted at 200 ng/ml in H2O and stored at −80° C. for no longer than 4 weeks. Male C57BL6 mice were obtained from the Animal Resource Centre (Perth, Wash.) at 4 weeks of age and housed with 4 mice per cage on a 12 hr light/dark cycle at a temperature of 22° C. and a constant humidity with a normal rodent diet. At 12 weeks of age, mice were grouped according to body mass and composition, determined by EchoMRI. Mice were then administered 1 μg of recombinant Aβ40 or ScrAβ40 (n=12/group per cohort) by i.p. injection once/day for 5 wks. After” for “After”, “nitrogen. Plasma Aβ40 was measured using a high sensitivity ELISA kit (Wako Diagnostics) and plasma that was diluted 1:10 with assay buffer.” for “nitrogen.”

## Aβ42: Lyophilised recombinant Aβ42 (Millipore), amyloid beta peptide of 42 amino acids
Male C57BL6 mice [1]; 1 μg/day i.p., five weeks, FIG. 1A
  increase in plasma Aβ42 compared with administration of ScrAβ42: approximately 3 fold
Male C57BL6 mice [1]; FIG. 1E
  cardiac gene expression (inflammation, endoplasmic reticulum stress): gene expression changes indicative of cardiac stress responses
Male C57BL6 mice [1]; after five weeks of peptide administration, vs ScrAβ42
  whole body glucose tolerance or plasma insulin throughout the GTT: no difference
Male C57BL6 mice [1]; heart, FIG. 1C
  glucose incorporation into TAG (14C-glucose labelling): greater
Male C57BL6 mice [1]; heart, FIG. 1D
  total TAG: increased
Male C57BL6 mice [2]; FIG. 2B
  internal dimensions of the left ventricle (LVIDd): no effect
Male C57BL6 mice [2]; FIG. 2D
  deceleration time: increased
Male C57BL6 mice [2]; FIG. 2F
  fractional shortening: reduced
Male C57BL6 mice [2]; FIG. 2G
  ejection fraction: reduced
Male C57BL6 mice [2]; between groups, FIG. 2E
  E normalised by isovolumetric relaxation time (IVRT): no significant difference
Male C57BL6 mice [2]; five weeks Aβ42 vs ScrAβ42, FIG. 2A
  gross heart weight: no effect

## CN1C(N)=N[C@](C)(c2cc(NC(=O)c3ccc(F)cn3)ccc2F)CS1(=O)=O [Verubecestat, verubecestat]
Obese mice (HFD); 25 mg/kg per day oral gavage, obese mice, FIG. 7A
  plasma Aβ40: decreased
Obese mice (HFD); 25 mg/kg per day oral gavage, obese mice, FIG. 7B
  plasma Aβ42: decreased
Obese mice (HFD); 4 weeks of daily treatment, 25 mg/kg oral, vehicle group 122%, FIG. 7C
  DT after treatment, of baseline levels: 107%

## Aβ40: Lyophilised recombinant Aβ40 (Millipore), amyloid beta peptide
Male C57BL6 mice [3]; 1 μg/day i.p., 5 weeks, vs ScrAβ40, FIG. 6A
  plasma Aβ40: significantly increased
Male C57BL6 mice [3]; FIG. 6B
  E:A ratio: did not have any effect
Male C57BL6 mice [3]; FIG. 6C
  DT: did not have any effect
Male C57BL6 mice [3]; FIG. 6E
  ejection fraction: nor any effect
Male C57BL6 mice [3]; FIG. 6F
  IVSd: no effect
Male C57BL6 mice [3]; FIG. 6G
  LVIDd: no effect
Male C57BL6 mice [3]; FIG. 6H
  LV mass: no effect
